Laboratory results taken from BindingDB's records for patent US20260060961 (Jazz Pharmaceuticals Ireland, 2026).

Biological target: GTPase KRas [G12C] (Homo sapiens, UniProt P01116, G12C)
Test: HTRF Nucleotide Exchange Assay
Description: The capacity of compounds to bind KRAS G12C and KRAS wildtype was quantified using a HTRF nucleotide exchange assay. Recombinant human KRAS protein (5 nM; aa1-188 KRAS WT or KRAS containing the G12C amino acid substitution, an N-terminal 6×His-tag and leader sequence), and 2 nM Europium-labeled anti-6×His antibody were mixed in assay buffer (10 mM HEPES pH7.3, 75 mM NaCl, 5 mM MgCl2, 0.05% BSA, 0.0025% NP-40 and 100 mM KF) with various concentrations of compound in a 384-well plate and a volume of 5 μL. After a 180 minute incubation at room temperature, 5 μl of 200 nM EDA-GTP-DY647P1 diluted in assay buffer was added to the plate. Following 30-minute incubation at room temperature, time-resolved fluorescence was measured on a PerkinElmer Envision plate reader. DMSO (0.3%) and unlabeled GDP (1 μM) or equivalent tool compound were used to generate the Max and Min assay signals, respectively. Data was analysed using a four-parameter logistic model to calculate IC50 values, with at least two independent replicates were performed for each compound.

Chain of GTPase KRas [G12C] (P01116 whole entry G12C): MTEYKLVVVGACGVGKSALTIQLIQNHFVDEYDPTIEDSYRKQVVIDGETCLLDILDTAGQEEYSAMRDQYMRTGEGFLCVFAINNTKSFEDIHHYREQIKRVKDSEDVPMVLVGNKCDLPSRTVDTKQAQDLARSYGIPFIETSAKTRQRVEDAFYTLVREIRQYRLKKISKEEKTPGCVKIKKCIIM

Structure (SMILES)	IC50
C=CC(=O)N1CC2(CC(c3nc(-c4ccc(OCC(=O)N5CCOCC5)cc4)c(-c4cc(O)cc5ccccc45)n3C)C2)C1 [US20260060961, Example 29]	< 1 µM
C=CC(=O)N1CC2(CC(c3nc(-c4ccc5c(cnn5C)c4)c(-c4cccc5ccccc45)n3C)C2)C1 [US20260060961, Example 34]	> 10 µM
